Values after ≈ are worked out from the molar mass of the structure shown. Like-named read-outs stand apart in the source and are kept apart here.
Columns and labels:
[1] = system: M. tuberculosis strain 103471; conditions: literature values; cited from earlier work
M. tuberculosis 27294 = test: In vitro agar dilution assay (MIC), reference strain; type: cell-based, Mycobacterium tuberculosis; conditions: for MIC: Mycobacterium tuberculosis, 27294, Table I, read-out: MIC (μg/ml) against M. tuberculosis-27294
[2] = system: M. tuberculosis clinical isolates, sensitive; test: microbe, parasite or virus in culture; type: cell-based, Mycobacterium tuberculosis; conditions: for MIC: Mycobacterium tuberculosis
[3] = system: M. avium-intracellulare complex; test: In vitro agar dilution assay (MIC), M. avium-intracellulare complex; type: cell-based; conditions: Mycobacterium avium-intracellulare; Table II; 13 strains; read-out: MIC (μg/ml) M. avium-intracellulare complex (n = 13)
[4] = system: M. tuberculosis H37Rv ATCC 27294; test: In vitro growth inhibition assay, BACTEC 460 TB system; type: cell-based, Mycobacterium tuberculosis; parameters: key: +: If ΔGI of test vial is less than that of the control vial the culture was sensitive to the test compound; conditions: final concentration 6.25 μg/ml
M. fortuitum = test: In vitro agar dilution assay (MIC), M. fortuitum; type: cell-based, Mycobacterium fortuitum; conditions: Mycolicibacterium fortuitum, read-out: MIC (μg/ml) M. fortuitum (n = 8)
M. kansasii = test: In vitro agar dilution assay (MIC), M. kansasii; type: cell-based; conditions: Mycobacterium kansasii, read-out: MIC (μg/ml) M. kansasii (n = 2)
[5] = system: M. tuberculosis H37Rv ATCC 27294; test: Murine model of pulmonary tuberculosis, treated 01 day post-infection; conditions: for Mean Log10 No. of CFU Lung / Mean Log10 No. of CFU Spleen: 5 day/week for 4 week; for Mean Log10 no. of reduction Lung / Mean Log10 no. of reduction Spleen / Mean Log10 No. of reduction Lung / Mean Log10 No. of reduction Spleen: difference from early controls
[6] = Acute toxicity study in mice; type: in vivo, Swiss albino mice; conditions: for LD0: single oral dose, mice
Method: Compound No. 3 of formula (I) was administered, as a single oral dose, in Swiss albino mice. Two dose levels of 500 and 2000 mg/kg were employed. […] Therefore LD0 was >2000 mg/kg by oral route in mice. […] Similarly in compound No. 12 of Formula I, LD0 was >500 mg/kg by oral route in mice.

[7] = system: M. tuberculosis H37Rv ATCC 27294; test: Murine model of pulmonary tuberculosis, treated 14 days post-infection; conditions: Table IV; for Mean Log10 No. of CFU Lung / Mean Log10 No. of CFU Spleen: 5 day/week for 4 week, treated 14 days post-infection; for Mean Log10 no. of reduction Lung / Mean Log10 no. of reduction Spleen: difference from early controls
[8] = mice, oral route; cited from earlier work
[9] = read-out: MIC (μg/ml) M. tuberculosis Sensitive (n = 17)
[10] = read-out: MIC (μg/ml) against Clinical isolates Sensitive
[11] = Table III, 12.5 mg/kg gavage, treatment from 1 day after infection
[12] = Table III, 25 mg/kg gavage, treatment from 1 day after infection
[13] = Table III, 50 mg/kg gavage, treatment from 1 day after infection
[14] = Table VI, 12.5 mg/kg, treated 01 day post-infection
[15] = Table VI, 25 mg/kg, treated 01 day post-infection
[16] = Table VI, 50 mg/kg, treated 01 day post-infection

Cc1c(CN2CCN(C)CC2)cc(-c2ccc(Cl)cc2)n1-c1ccc(Cl)cc1 [BM 212]
MIC value (μg/ml) against the M. tuberculosis strain 103471 [1]: 0.70 µg/mL (≈ 1.69 µM)

COc1ccccc1N1CCN(Cc2cc(-c3ccc(Cl)cc3)n(-c3ccc(Cl)cc3)c2C)CC1 [Compound No. 2, 1-{[1,5-bis(4-chlorophenyl)-2-methylpyrrol-3-yl]methyl}-4-(2-methoxyphenyl) piperazine]
MIC (M. tuberculosis 27294): 0.25 µg/mL (≈ 0.494 µM)
MIC [2, 9]: 0.125 to 0.25 µg/mL (≈ 0.247 to 0.494 µM)
MIC [2, 10]: 0.125 to 0.25 µg/mL (≈ 0.247 to 0.494 µM)
MIC [3]: 4 to 8 µg/mL (≈ 7.9 to 15.8 µM)
Growth inhibition of M. tuberculosis 27294 [4]: +
MIC (M. fortuitum; Table II, 8 strains): 8 to 16 µg/mL (≈ 15.8 to 31.6 µM)
MIC (M. kansasii; Table II, 2 strains): 8 µg/mL (≈ 15.8 µM)

Cc1c(CN2CCN(c3cccc(C(F)(F)F)c3)CC2)cc(-c2ccc(Cl)cc2)n1-c1ccc(Cl)cc1 [Compound No. 3, 1-{[1,5-bis(4-chlorophenyl)-2-methylpyrrol-3-yl]methyl}-4-(3-trifluoromethylphenyl)piperazine]
MIC (M. tuberculosis 27294): 0.125 µg/mL (≈ 0.23 µM)
MIC [2, 9]: 0.125 to 0.25 µg/mL (≈ 0.23 to 0.459 µM)
MIC [2, 10]: 0.125 to 0.25 µg/mL (≈ 0.23 to 0.459 µM)
MIC [3]: 4 to 8 µg/mL (≈ 7.35 to 14.7 µM)
Growth inhibition of M. tuberculosis 27294 [4]: +
MIC (M. fortuitum; Table II, 8 strains): 4 to 8 µg/mL (≈ 7.35 to 14.7 µM)
MIC (M. kansasii; Table II, 2 strains): 4 µg/mL (≈ 7.35 µM)
Mean Log10 No. of CFU Lung [5, 11]: 2.63
Mean Log10 No. of CFU Spleen [5, 11]: 2.6
Mean Log10 no. of reduction Lung ([5]; Table III, 12.5 mg/kg): 1.85
Mean Log10 no. of reduction Spleen ([5]; Table III, 12.5 mg/kg): 2.03
Mean Log10 No. of CFU Lung [5, 12]: 2.13
Mean Log10 No. of CFU Spleen [5, 12]: 2.07
Mean Log10 no. of reduction Lung ([5]; Table III, 25 mg/kg): 2.35
Mean Log10 no. of reduction Spleen ([5]; Table III, 25 mg/kg): 2.29
Mean Log10 No. of CFU Lung [5, 13]: 1.97
Mean Log10 No. of CFU Spleen [5, 13]: 1.94
Mean Log10 no. of reduction Lung ([5]; Table III, 50 mg/kg): 2.51
Mean Log10 no. of reduction Spleen ([5]; Table III, 50 mg/kg): 2.64
Clinical symptoms or mortality ([6]; single oral dose 500 and 2000 mg/kg, Swiss albino mice, observed for 14 days): No clinical symptom or mortality was observed
Pathological changes in organs ([6]; single oral dose 500 and 2000 mg/kg, mice sacrificed on day 15): no pathological changes were seen in any organ
LD0 ([6]; observed for 14 days): > 2000 mg/kg

Cc1c(CN2CCN(c3cccc(C(F)(F)F)c3)CC2)cc(-c2ccccc2)n1NC(=O)c1ccncc1 [Compound No. 12, N-(3-{[4-(3-trifluoromethylphenyl)piperazinyl]methyl}-2-methyl-5-phenylpyrrolyl)-4-pyridylcarboxamide]
MIC (μg/ml) against M. tuberculosis-27294 (M. tuberculosis 27294; Table I): 0.25 µg/mL (≈ 0.481 µM)
MIC (μg/ml) against Clinical isolates Sensitive ([2]; Table I, agar dilution): 0.25 to 0.5 µg/mL
Growth inhibition of M. tuberculosis 27294 [4]: +
Mean Log10 No. of CFU Lung ([7]; 12.5 mg/kg): 4.18 ± 0.38
Mean Log10 No. of CFU Spleen ([7]; 12.5 mg/kg): 4.41 ± 0.26
Mean Log10 no. of reduction Lung ([7]; 12.5 mg/kg): 1.41
Mean Log10 no. of reduction Spleen ([7]; 12.5 mg/kg): 1.54
Mean Log10 No. of CFU Lung ([7]; 25 mg/kg): 2.87 ± 0.15
Mean Log10 No. of CFU Spleen ([7]; 25 mg/kg): 2.83 ± 0.29
Mean Log10 no. of reduction Lung ([7]; 25 mg/kg): 2.72
Mean Log10 no. of reduction Spleen ([7]; 25 mg/kg): 3.12
Mean Log10 No. of CFU Lung ([7]; 50 mg/kg): 2.74 ± 0.36
Mean Log10 No. of CFU Spleen ([7]; 50 mg/kg): 2.78 ± 0.32
Mean Log10 no. of reduction Lung ([7]; 50 mg/kg): 2.85
Mean Log10 no. of reduction Spleen ([7]; 50 mg/kg): 3.17
Mean Log10 No. of CFU Lung [5, 14]: 2.34 ± 0.18
Mean Log10 No. of CFU Spleen [5, 14]: 2.26 ± 0.21
Mean Log10 No. of reduction Lung ([5]; Table VI, 12.5 mg/kg): 2.23
Mean Log10 No. of reduction Spleen ([5]; Table VI, 12.5 mg/kg): 2.43
Mean Log10 No. of CFU Lung [5, 15]: 2.1 ± 0.24
Mean Log10 No. of CFU Spleen [5, 15]: 2.13 ± 0.28
Mean Log10 No. of reduction Lung ([5]; Table VI, 25 mg/kg): 2.47
Mean Log10 No. of reduction Spleen ([5]; Table VI, 25 mg/kg): 2.56
Mean Log10 No. of CFU Lung [5, 16]: 1.89 ± 0.24
Mean Log10 No. of CFU Spleen [5, 16]: 1.94 ± 0.23
Mean Log10 No. of reduction Lung ([5]; Table VI, 50 mg/kg): 2.68
Mean Log10 No. of reduction Spleen ([5]; Table VI, 50 mg/kg): 2.75
LD0 ([6]; observed for 14 days): > 500 mg/kg

NNC(=O)c1ccncc1 [Isoniazid, reference compound]
MIC (M. tuberculosis 27294): 0.25 µg/mL (≈ 1.82 µM)
Reported LD50 [8]: 139 mg/kg
MIC [2, 9]: 0.25 µg/mL (≈ 1.82 µM)
MIC [2, 10]: 0.125 to 0.25 µg/mL (≈ 0.911 to 1.82 µM)
MIC value (μg/ml) against the M. tuberculosis strain 103471 [1]: 0.25 µg/mL (≈ 1.82 µM)
Growth inhibition of M. tuberculosis 27294 [4]: +
MIC (M. fortuitum): > 16 µg/mL
MIC (M. kansasii): > 16 µg/mL
Mean Log10 No. of CFU Lung ([7]; 12.5 mg/kg): 4.56 ± 0.24
Mean Log10 No. of CFU Spleen ([7]; 12.5 mg/kg): 4.93 ± 0.42
Mean Log10 no. of reduction Lung ([7]; 12.5 mg/kg): 1.03
Mean Log10 no. of reduction Spleen ([7]; 12.5 mg/kg): 1.02
Mean Log10 No. of CFU Lung ([7]; 25 mg/kg): 3.19 ± 0.6
Mean Log10 No. of CFU Spleen ([7]; 25 mg/kg): 3.08 ± 0.44
Mean Log10 no. of reduction Lung ([7]; 25 mg/kg): 2.4
Mean Log10 no. of reduction Spleen ([7]; 25 mg/kg): 2.87
Mean Log10 No. of CFU Lung ([7]; 50 mg/kg): 2.97 ± 0.46
Mean Log10 No. of CFU Spleen ([7]; 50 mg/kg): 2.89 ± 0.27
Mean Log10 no. of reduction Lung ([7]; 50 mg/kg): 2.62
Mean Log10 no. of reduction Spleen ([7]; 50 mg/kg): 3.06
Mean Log10 No. of CFU Lung [5, 11]: 2.93
Mean Log10 No. of CFU Spleen [5, 11]: 2.91
Mean Log10 no. of reduction Lung ([5]; Table III, 12.5 mg/kg): 1.55
Mean Log10 no. of reduction Spleen ([5]; Table III, 12.5 mg/kg): 1.72
Mean Log10 No. of CFU Lung [5, 12]: 2.16
Mean Log10 No. of CFU Spleen [5, 12]: 2.21
Mean Log10 no. of reduction Lung ([5]; Table III, 25 mg/kg): 2.36
Mean Log10 no. of reduction Spleen ([5]; Table III, 25 mg/kg): 2.27
Mean Log10 No. of CFU Lung [5, 13]: 1.95
Mean Log10 No. of CFU Spleen [5, 13]: 2.12
Mean Log10 no. of reduction Lung ([5]; Table III, 50 mg/kg): 2.53
Mean Log10 no. of reduction Spleen ([5]; Table III, 50 mg/kg): 2.51
Mean Log10 No. of CFU Lung [5, 14]: 2.89 ± 0.27
Mean Log10 No. of CFU Spleen [5, 14]: 2.91 ± 0.42
Mean Log10 No. of reduction Lung ([5]; Table VI, 12.5 mg/kg): 1.68
Mean Log10 No. of reduction Spleen ([5]; Table VI, 12.5 mg/kg): 1.78
Mean Log10 No. of CFU Lung [5, 15]: 2.23 ± 0.33
Mean Log10 No. of CFU Spleen [5, 15]: 2.21 ± 0.44
Mean Log10 No. of reduction Lung ([5]; Table VI, 25 mg/kg): 2.34
Mean Log10 No. of reduction Spleen ([5]; Table VI, 25 mg/kg): 2.48
Mean Log10 No. of CFU Lung [5, 16]: 2.02 ± 0.31
Mean Log10 No. of CFU Spleen [5, 16]: 2.07 ± 0.33
Mean Log10 No. of reduction Lung ([5]; Table VI, 50 mg/kg): 2.55
Mean Log10 No. of reduction Spleen ([5]; Table VI, 50 mg/kg): 2.62

Cc1c(CN2CCN(c3ncccn3)CC2)cc(-c2ccc(Cl)cc2)n1-c1ccc(Cl)cc1 [compound 5, 1-{[1,5-bis(4-chlorophenyl)-2-methylpyrrol-3-yl]methyl}-4-(2-pyrimidyl) piperazine]
MIC (M. tuberculosis 27294): 0.25 µg/mL (≈ 0.523 µM)
MIC [2, 9]: 0.5 to 1 µg/mL (≈ 1.05 to 2.09 µM)
MIC [2, 10]: 0.5 to 1 µg/mL (≈ 1.05 to 2.09 µM)
melting point: 184 to 186 °C
MIC [3]: 4 to 8 µg/mL (≈ 8.36 to 16.7 µM)
Growth inhibition of M. tuberculosis 27294 [4]: +
MIC (M. fortuitum; Table II, 8 strains): 8 to 16 µg/mL (≈ 16.7 to 33.4 µM)
MIC (M. kansasii; Table II, 2 strains): 8 µg/mL (≈ 16.7 µM)

Source: patent publication US7763602B2, “Pyrrole derivatives as antimycobacterial compounds” (priority 2002, dated 2010)
